≈ marks a conversion by molar mass, not a printed value. Read-outs that look alike come from different tables or passages of the source. Blank lines part the entries; values can stand above or below the compound they belong to.
Tests used:
[1] = system: Bacteroides dorei CL02T12C06 HM-719; test: MIC against human normal gut microbiota; type: cell-based; conditions: Phocaeicola dorei; Table 3; BHIS broth, anaerobic, 48 hours; read-out: MIC
Procedure: (§1) Three different bacterial strains were used in this experiment; Bifidobacterium (anaerobic Gram positive bacteria), Bacteroides (anaerobic Gram negative bacteria) and Lactobacillus (microaerophilic Gram positive bacteria). Bifidobacterium and Bacteroides were first grown for 48 hours at 37° C., anaerobically using brain heart infusion supplemented (BHIS) agar (Brain heart infusion agar supplemented with hemin, vitamin K and L-cysteine). Lactobacillus was cultivated on MRS agar and incubated in presence of 5% CO2 for 48 hours at 37° C. Each bacterium was suspended in phosphate buffered saline (PBS) to produce a suspension with optical density that matches 0.5 McFarland standard and diluted in brain heart infusion supplemented broth (for Bifidobacterium and Bacteroides) or in MRS broth (for Lactobacillus) to achieve bacterial concentration of approximately 5×10^5 CFU/ml. Bacteria were then seeded in 96-well plates containing serial dilutions of the compounds and incubated as mentioned previously for 48 hours.

[2] = system: Bacteroides fragilis CL07T00C01 HM-709; test: MIC against human normal gut microbiota; type: cell-based; conditions: Table 3, BHIS broth, anaerobic, 48 hours, read-out: MIC
Procedure: as §1

[3] = system: Bifidobacterium breve JCP7499 HM 1120; test: MIC against human normal gut microbiota; type: cell-based; conditions: JCP7499HM1120, Table 3, BHIS broth, anaerobic, 48 hours, read-out: MIC
Procedure: as §1

[4] = system: Enterococcus faecalis S613 HM-334; test: MIC, broth microdilution (CLSI); type: cell-based
Procedure: (§2) The minimum inhibitory concentrations (MICs) of the compounds and control drugs were determined using the broth microdilution method, according to guidelines outlined by the Clinical and Laboratory Standards Institute (CLSI). Enterococci strains were grown aerobically overnight on tryptone soya agar plates at 37° C., afterwards a bacterial solution equivalent to 0.5 McFarland standard was prepared and diluted in tryptone soy broth (TSB) to achieve a bacterial concentration of about 5×10^5 CFU/mL and seeded in 96-well well plates. Compounds and control drugs were added in the first row of the 96-well plates and serially diluted along the plates. Plates were then incubated aerobically at 37° C. for 18-20 hours. MICs reported in Table 1 are the minimum concentration of the compounds/control drugs that could inhibit completely the visual growth of the bacteria.
(§3) The minimum inhibitory concentrations (MICs) of CAIs were tested against clinical isolates of vancomycin sensitive and vancomycin resistant Enterococci strains as per the guidelines provided by the Clinical and Laboratory Standards Institute (CLSI). The selected strains of Enterococci were streaked on Tryptic Soy Agar (TSA) plates and let grow for 24 hours at 37° C. Afterwards, a bacterial solution equivalent to 0.5 McFarland standard was prepared and diluted in tryptone soy broth (TSB) or brain heart infusion broth (BHIB) to achieve a bacterial concentration of about 5×10^5 CFU/mL and seeded in 96-well well plates. Compounds and control drugs were added in the first row of the 96-well plates and serially diluted along the plates. Plates were then incubated aerobically at 37° C. for 18-20 hours. MICs reported in Table 5 are the minimum concentration of the compounds/control drugs that could inhibit completely the visual growth of the bacteria.
The minimum inhibitory concentrations (MICs) of CAIs were tested against vancomycin resistant Enterococcus faecalis—S613 HM 334 strain as per the guidelines provided by the Clinical and Laboratory Standards Institute (CLSI). The selected strain was streaked on Tryptic Soy Agar (TSA) plate and let grow for 24 hours at 37° C. […] Compounds and control drugs were added in the first row of the 96-well plates and serially diluted along the plates. Plates were then incubated aerobically at 37° C. for 18-20 hours. MICs reported in table (6) are the minimum concentration of the compounds/control drugs that could inhibit completely the visual growth of the bacteria.

[5] = system: Enterococcus faecium E417 - HM-965; test: MIC, broth microdilution (CLSI); type: cell-based
Procedure: as §2, §3

[6] = system: Enterococcus fecalis Strain SF 24397 NR31970; test: MIC, broth microdilution (CLSI); type: cell-based; conditions: Table 5
Procedure: as §2, §3

[7] = system: Enterococcus faecium Patient #2-1 - NR-31909; test: MIC, broth microdilution (CLSI); type: cell-based; conditions: Table 5
Procedure: as §2, §3

VERO cells = test: In vitro cytotoxicity, MTS assay; type: cell-based, monkey; conditions: concentration up to 128 μg/mL; two hours incubation
Procedure: Toxicity assessment: Compounds AS005H, AS005J, AS004B, AS005K, AS005A and 005D were assayed (at concentrations of 64 and 128 μg/mL) against a fibroblast-like monkey kidney cell line (VERO cell) to determine the potential toxic effect in vitro. Briefly, cells were cultured in Minimum Essential Medium (MEM) supplemented with 10% fetal bovine serum (FBS), 1 mM sodium pyruvate, and penicillin-streptomycin at 37° C. with CO2 (5%). Control cells received DMSO alone at a concentration equal to that in drug-treated cell samples. The cells were incubated with the compounds (in triplicate) in a 96-well plate at 37° C. with CO2 (5%) for two hours. The assay reagent MTS 3-(4,5-dimethylthiazol-2-yl)-5-(3-carboxymethoxyphenyl)-2-(4-sulfophenyl)-2H-tetrazolium) (Promega, Madison, WI, USA) was subsequently added and the plate was incubated for four hours. Absorbance readings (at OD490) were taken using a kinetic microplate reader (Molecular Devices, Sunnyvale, CA, USA). The quantity of viable cells after treatment with each compound was expressed as a percentage of the viability of DMSO-treated control cells (average of triplicate wells±standard deviation). The toxicity data was analyzed via a two-way ANOVA, with post hoc Dunnet's multiple comparisons test (P<0.05), utilizing GraphPad Prism 6.0 (GraphPad Software, La Jolla, CA).
Percent viable mammalian cells (measured as average absorbance ratio (test agent relative to DMSO) for cytotoxicity analysis of compounds AS005H, AS005J, AS004B, AS005K, AS005A and 005D (tested in triplicates) at 64 and 128 μg/mL against VERO cells using the MTS 3-(4,5-dimethylthiazol-2-yl)-5-(3-carboxymethoxyphenyl)-2-(4-sulfophenyl)-2H-tetrazolium) assay. Dimethyl sulfoxide (DMSO) was used as a negative control to determine a baseline measurement for the cytotoxic impact of each compound. The absorbance values represent an average of a minimum of three samples analyzed for each compound. Error bars represent standard deviation values for the absorbance values.

[8] = Enterococcus faecalis, S613HM334, Table 1, TSB, read-out: MIC
[9] = Enterococcus faecalis, S613HM334, Table 5, BHIB, read-out: MIC
[10] = Enterococcus faecalis, S613HM334, Table 5, TSB, read-out: MIC
[11] = Enterococcus faecalis, S613HM334, Table 7, TSB, read-out: MIC
[12] = Enterococcus faecalis, S613HM334, Table 6, TSB in presence of 4% human serum albumin, read-out: MIC

MIC [4, 8]: 1 µg/mL (≈ 2.96 µM)
MIC [4, 9]: 1 µg/mL (≈ 2.96 µM)
MIC [4, 10]: 1 µg/mL (≈ 2.96 µM)
MIC [4, 11]: 1 µg/mL (≈ 2.96 µM)
Compound: CC(=O)NC[C@H]1CN(c2ccc(N3CCOCC3)c(F)c2)C(=O)O1 [Linezolid]
MIC [1]: 1 µg/mL (≈ 2.96 µM)
MIC [2]: 2 µg/mL (≈ 5.93 µM)
MIC [3]: ≤ 0.5 µg/mL

MIC [4, 9]: > 128 µg/mL
MIC [4, 10]: 1 µg/mL (≈ 3.87 µM)
MIC [4, 12]: > 256 µg/mL
Compound: CCOc1ccc2nc(S(N)(=O)=O)sc2c1 [Ethoxzolamide]

MIC ([4]; Table 5, TSB): 16 µg/mL (≈ 52.4 µM)
MIC ([5]; Table 5, BHIB): 16 µg/mL (≈ 52.4 µM)
MIC ([5]; Table 5, TSB): 1 µg/mL (≈ 3.28 µM)
MIC ([6]; TSB): 16 µg/mL (≈ 52.4 µM)
MIC ([7]; TSB): 2 µg/mL (≈ 6.55 µM)
Compound: NS(=O)(=O)c1cc(Cl)c(Cl)c(S(N)(=O)=O)c1 [Dichlophenamide, reference compound]

MIC [4, 11]: 0.007 µg/mL (≈ 0.0282 µM)
Compound: NS(=O)(=O)c1nnc(NC(=O)C2CC2)s1 [CAI0020, N-(5-Sulfamoyl-1,3,4-thiadiazol-2-yl)cyclopropanecarboxamide]

MIC [4, 11]: 0.5 µg/mL (≈ 1.81 µM)
Compound: NS(=O)(=O)c1nnc(NC(=O)C2CCCC2)s1 [CAI0023, N-(5-Sulfamoyl-1,3,4-thiadiazol-2-yl)cyclopentanecarboxamide]

MIC [4, 8]: 2 µg/mL (≈ 8.46 µM)
MIC [4, 11]: 2 µg/mL (≈ 8.46 µM)
Compound: CCC(=O)Nc1nnc(S(N)(=O)=O)s1 [CAI0009, N-(5-Sulfamoyl-1,3,4-thiadiazol-2-yl)propionamide]
MIC [1]: > 64 µg/mL
MIC [2]: > 64 µg/mL
MIC [3]: > 64 µg/mL

MIC [4, 11]: 1 µg/mL (≈ 3.81 µM)
Compound: NS(=O)(=O)c1nnc(NC(=O)C2CCC2)s1 [CAI0018, N-(5-Sulfamoyl-1,3,4-thiadiazol-2-yl)cyclobutanecarboxamide]

MIC [4, 11]: 0.007 µg/mL (≈ 0.0239 µM)
Compound: CCCCCCC(=O)Nc1nnc(S(N)(=O)=O)s1 [CAI0027, N-(5-Sulfamoyl-1,3,4-thiadiazol-2-yl)heptanamide]

MIC [4, 11]: 0.03 µg/mL (≈ 0.103 µM)
Compound: NS(=O)(=O)c1nnc(NC(=O)CC2CCCC2)s1 [CAI0021, 2-Cyclopentyl-N-(5-sulfamoyl-1,3,4-thiadiazol-2-yl)acetamide]

Compound: CCCC(=O)Nc1nnc(S(N)(=O)=O)s1 [CAI0013, N-(5-Sulfamoyl-1,3,4-thiadiazol-2-yl)butyramide]
MIC [1]: > 64 µg/mL
MIC [2]: > 64 µg/mL
MIC [3]: > 64 µg/mL
toxicity to VERO cells (percent viable cells, MTS) (VERO cells): non-toxic

MIC [4, 9]: 2 µg/mL (≈ 1.23 µM)
MIC [4, 10]: 1 µg/mL (≈ 0.617 µM)
MIC [4, 12]: 16 µg/mL
MIC ([5]; Enterococcus faecium, E417HM965, Table 5, BHIB, read-out: MIC): 16 µg/mL (≈ 9.87 µM)
MIC ([5]; Enterococcus faecium, E417HM965, Table 5, TSB, read-out: MIC): 4 µg/mL (≈ 2.47 µM)
MIC ([6]; Enterococcus, BHIB, read-out: MIC): 2 µg/mL (≈ 1.23 µM)
MIC ([6]; Enterococcus, TSB, read-out: MIC): 1 µg/mL (≈ 0.617 µM)
MIC ([7]; Enterococcus faecium, BHIB, read-out: MIC): 16 µg/mL (≈ 9.87 µM)
MIC ([7]; Enterococcus faecium, TSB, read-out: MIC): 8 µg/mL (≈ 4.94 µM)
Compound: CCCCCCCCCC(=O)N[C@@H](Cc1c[nH]c2ccccc12)C(=O)N[C@H](CC(N)=O)C(=O)N[C@@H](CC(=O)O)C(=O)N[C@@H]1C(=O)NCC(=O)N[C@@H](CCCN)C(=O)N[C@@H](CC(=O)O)C(=O)N[C@H](C)C(=O)N[C@@H](CC(=O)O)C(=O)NCC(=O)N[C@H](CO)C(=O)N[C@@H]([C@H](C)CC(=O)O)C(=O)N[C@@H](CC(=O)c2ccccc2N)C(=O)O[C@@H]1C [Daptomycin]

MIC [4, 11]: 0.015 µg/mL (≈ 0.0493 µM)
Compound: NS(=O)(=O)c1nnc(NC(=O)CC2CCCCC2)s1 [CAI0029, 2-Cyclohexyl-N-(5-sulfamoyl-1,3,4-thiadiazol-2-yl)acetamide]

MIC [4, 9]: > 128 µg/mL
MIC [4, 10]: 2 µg/mL (≈ 5.21 µM)
MIC [4, 12]: > 256 µg/mL
Compound: CCN[C@H]1CN(CCCOC)S(=O)(=O)c2sc(S(N)(=O)=O)cc21 [Brinzolamide]

MIC [4, 8]: 4 µg/mL (≈ 14.1 µM)
MIC [4, 11]: 4 µg/mL (≈ 14.1 µM)
Compound: NS(=O)(=O)c1nnc(NC(=O)c2ccccc2)s1 [CAI0012, N-(5-Sulfamoyl-1,3,4-thiadiazol-2-yl)benzamide]
MIC [1]: > 64 µg/mL
MIC [2]: > 64 µg/mL
MIC [3]: > 64 µg/mL

MIC [4, 11]: 0.25 µg/mL (≈ 0.861 µM)
Compound: NS(=O)(=O)c1nnc(NC(=O)C2CCCCC2)s1 [CAI0022, N-(5-Sulfamoyl-1,3,4-thiadiazol-2-yl)cyclohexanecarboxamide]

MIC [4, 9]: > 128 µg/mL
MIC [4, 10]: 1 µg/mL (≈ 4.23 µM)
MIC [4, 12]: > 256 µg/mL
Compound: CC(=O)/N=c1/sc(S(N)(=O)=O)nn1C [Methazolamide]

MIC [4, 11]: 0.25 µg/mL (≈ 0.946 µM)
Compound: CC(C)CC(=O)Nc1nnc(S(N)(=O)=O)s1 [CAI0026, 3-Methyl-N-(5-sulfamoyl-1,3,4-thiadiazol-2-yl)butanamide]

MIC [4, 11]: > 128 µg/mL
Compound: CC(=O)Nc1nnc(S(C)(=O)=O)s1 [CAI0025, N-(5-(Methylsulfonyl)-1,3,4-thiadiazol-2-yl)acetamide]

MIC [4, 11]: 0.03 µg/mL (≈ 0.108 µM)
Compound: CC(C)(C)CC(=O)Nc1nnc(S(N)(=O)=O)s1 [CAI0028, 3,3-Dimethyl-N-(5-sulfamoyl-1,3,4-thiadiazol-2-yl)butanamide]
